From patent US4353910A, “Derivatives of 4,5,6,7-tetrahydroisoxazolo [5,4-c] pyridine-3-one, pharmaceutical compositions and methods of treatment” (priority 1981, dated 1982)

Assays:
[1] = system: isoniazide-induced seizures in mice; experiment: Isoniazide antagonism (isoniazide 300 mg/kg s.c. induced convulsions); format: in vivo, mouse; parameters: unit: mg/kg; settings: i.p. test compound, table does not say whether MED or ED50
Procedure: Isoniazide 300 mg/kg s.c.
Five mice are used for each dose level.
Immediately after administration of test substance, isoniazide 300 mg/kg is injected s.c. This dose of isoniazide induces intermittent tonic clonic seizures within 60 minutes.
The calculations are performed as an "on line procedure" on the EDP-terminal. […] ED50 is determined as the dose in mg/kg which increases the time 50%.

[2] = THIP, European Patent Application No. 78 100 191.2; cited from earlier work
[3] = THIP, prior art; cited from earlier work
mouse pain threshold = experiment: Mouse grid shock (analgesic effect, pain threshold); format: in vivo; settings: male mice, + not defined
Procedure: The mouse grid consists of a perspex cage with wire grid bottom and a perspex lid, on which is placed a microphone sensitive to the frequency of a mouse-squeak. A stimulator with motordriven potentiometer applies a sequence of square wave impulses of continuously increasing milliamperage to the grid. Frequency of impulses 20 cycles/sec., duration 5 msec. Milliamperage is recorded on a digital amperemeter connected to the stimulator. Activation of the microphone by a mouse-squeak cuts off the current and the final milliamperage appear on the meter.
Five mice are used for each dose level. Each mouse serves as its own control.
Prior to the administration of test substance the animals are placed on the grid one at a time and the pain threshold is determined by increasing the current intensity until the mouse squeaks. The pain threshold may be read on the milliamperemeter.
Fifteen minutes and 30 minutes after administration of test substance the mice are tested again and the pain thresholds recorded.
Analgesic effect is present when the pain threshold is increased over the pre-dosing value (control value). The results are stated as % increase in pain threshold calculated on the basis of the control value. The registration can also be done as an on-line procedure. […]

[4] = target: ^3 H-GABA binding to rat brain membranes; experiment: ^3 H-GABA binding to rat brain membranes; settings: 10 nM ^3 H-GABA, on ice 5 min
Procedure: 0.32 M sucrose (made fresh every day)
0.05 N Tris-citrate buffer (pH ~6.8)
^3 H-GABA=aminobutyric acid, γ-2,3-^3 H(N) approx.
35 Ci/mmol, from New England Nuclear
(diluted daily to 1 μM in water)
A. Preparation of membranes
Rats are killed by a blow to their head, exsanguinated and their brains removed and cooled in icecold saline. After rinsing and weighing two brains are pooled and homogenized in 40 ml of icecold 0.32 M sucrose using a motor-driven homogenizer with teflon pestle (6 strokes up and down, slow speed rotation).
The samples are centrifuged for 10 min. at 900 g, and thereafter the supernatants are centrifuged for 20 min. at 17,000 g (4° C.). […]
Incubation tubes in duplicate receive on ice 780 μl of water, 200 μl of drug dissolved in water, 20 μl of 1 μM ^3 H-GABA (final concentration of ^3 H-GABA in tubes=10 nM) and 1000 μl of the membrane suspension. […] Ten ml of Instagel or Lumagel containing 10 ml of acetic acid per 1 are added, and the radioactivity are determined by liquid scintillation counting. The unspecific binding of ^3 H-GABA is determined by incubating the samples with 1 mM of GABA. […]
The means of controls and 1 mM GABA samples are calculated. […] The IC50-values are determined as the concentrations, at which the binding is 50 percent of the total binding minus the unspecific binding.

Structure (SMILES) | Isoniazide antagonism [1] | further results
NC(=O)n1oc2c(c1=O)CCNC2 [Example 5, 2-Carbamoyl-4,5,6,7-tetrahydroisoxazolo[5,4-c]-pyridine-3-one] | 5.8 | –
Oc1noc2c1CCNC2 [THIP, 4,5,6,7-tetrahydroisoxazolo[5,4-c]pyridine-3-ol] | 1.3 | GABA-related activity [2]: having GABA-related activity; duration of action [3]: relatively shortacting; side effects [3]: some side effects
O=C(NC1CCCCC1)n1oc2c(c1=O)CCNC2 [Example 7, 2-(N-cyclohexylcarbamoyl)-4,5,6,7-tetrahydroisoxazolo[5,4-c]pyridine-3-one] | 2.1 | –
CC(=O)n1oc2c(c1=O)CCNC2 [Example 3, 2-Acetyl-4,5,6,7-tetrahydroisoxazolo[5,4-c]-pyridine-3-one] | weak effect | Mouse grid shock (mouse pain threshold): no effect; IC50 [4]: > 100 µM
CNC(=O)n1oc2c(c1=O)CCNC2 [Example 6, 2-(N-methylcarbamoyl)-4,5,6,7-tetrahydroisoxazolo[5,4-c]pyridine-3-one] | 1.3 | –
